Measured values: PubChem BioAssay (NCI)
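Following 48 hours of exposure in 96-well plates, responses at five concentrations were used to interpolate endpoints linearly. Abbreviation: GI50, concentration required for 50% inhibition of growth. TGI marks complete inhibition of growth.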

Experiments:
Experiment in all cases: NCI tumour cell line growth inhibition, 48 h
[1] = tested on: MOLT-4 leukemia
[2] = tested on: IGROV1 ovarian
[3] = tested on: HT29 colon
[4] = tested on: HCT-116 colon
[5] = tested on: SNB-75 CNS
[6] = tested on: OVCAR-4 ovarian
[7] = tested on: KM12 colon
[8] = tested on: NCI-H226 lung
[9] = tested on: SF-295 CNS
[10] = tested on: UACC-257 melanoma
[11] = tested on: NCI/ADR-RES ovarian
[12] = tested on: CAKI-1 renal
[13] = tested on: SK-OV-3 ovarian
[14] = tested on: SN12C renal
[15] = tested on: CCRF-CEM leukemia
[16] = tested on: RPMI-8226 leukemia
[17] = tested on: A549 NSCLC
[18] = tested on: SF-539 CNS
[19] = tested on: ACHN renal
[20] = tested on: T-47D breast
[21] = tested on: HS 578T breast
[22] = tested on: HOP-62 NSCLC
[23] = tested on: 786-0 renal
[24] = tested on: SNB-19 CNS
[25] = tested on: HCT-15 colon
[26] = tested on: OVCAR-8 ovarian
[27] = tested on: A498 renal
[28] = tested on: MDA-MB-231 breast
[29] = tested on: OVCAR-3 ovarian
[30] = tested on: TK-10 renal
[31] = tested on: UO-31 renal
[32] = tested on: DU-145 prostate
[33] = tested on: NCI-H23 lung
[34] = tested on: OVCAR-5 ovarian
[35] = tested on: HOP-92 NSCLC
[36] = tested on: PC-3 prostate
[37] = tested on: NCI-H460 lung
[38] = tested on: UACC-62 melanoma
[39] = tested on: SK-MEL-28 melanoma
[40] = tested on: SK-MEL-2 melanoma
[41] = tested on: SR leukemia
[42] = tested on: SF-268 CNS
[43] = tested on: LOX IMVI melanoma
[44] = tested on: EKVX NSCLC
[45] = tested on: HL-60(TB) leukemia
[46] = tested on: M14 melanoma
[47] = tested on: MDA-MB-435
[48] = tested on: NCI-H522 lung
[49] = tested on: U251 CNS
[50] = tested on: K-562 leukemia
[51] = tested on: COLO 205 colon
[52] = tested on: BT-549 breast

## COc1cccc2c1C(=O)c1c(O)c3c(c(O)c1C2=O)C[C@@](O)(/C(C)=N/NC(=O)c1ccc(Cl)cc1)C[C@@H]3OC1CC(N)C(O)C(C)O1 (some centres undefined)
[1]
  GI50: 0.0545 µM
  TGI: 3.31 µM
[2]
  GI50: 0.138 µM
  TGI: 2.74 µM
[3]
  GI50: 0.232 µM
  TGI: 1.41 µM
[4]
  GI50: 0.147 µM
  TGI: 1.49 µM
[5]
  GI50: 0.102 µM
  TGI: 0.552 µM
[6]
  GI50: 0.348 µM
  TGI: 2.31 µM
[7]
  GI50: 0.326 µM
  TGI: 2.44 µM
[8]
  GI50: 0.187 µM
  TGI: 0.897 µM
[9]
  GI50: 0.236 µM
  TGI: 2.2 µM
[10]
  GI50: 0.188 µM
  TGI: 0.867 µM
[11]
  GI50: 4.6 µM
  TGI: 44.3 µM
[12]
  GI50: 0.708 µM
  TGI: 5.98 µM
[13]
  GI50: 0.481 µM
  TGI: 13.8 µM
[14]
  GI50: 0.156 µM
  TGI: 3 µM
[15]
  GI50: 0.0903 µM
  TGI: 2.32 µM
[16]
  GI50: 0.216 µM
  TGI: 1.47 µM
[17]
  GI50: 0.124 µM
  TGI: 1.85 µM
[18]
  GI50: 0.21 µM
  TGI: 0.747 µM
[19]
  GI50: 0.181 µM
  TGI: 1.43 µM
[20]
  GI50: 0.163 µM
  TGI: 1.79 µM
[21]
  GI50: 0.369 µM
  TGI: 2.52 µM
[22]
  GI50: 0.215 µM
  TGI: 1.94 µM
[23]
  GI50: 0.249 µM
  TGI: 1.69 µM
[24]
  GI50: 0.162 µM
  TGI: 1.9 µM
[25]
  GI50: 1.02 µM
  TGI: 12.6 µM
[26]
  GI50: 0.268 µM
  TGI: 3.02 µM
[27]
  GI50: 0.129 µM
  TGI: 0.625 µM
[28]
  GI50: 0.603 µM
  TGI: 2.77 µM
[29]
  GI50: 0.395 µM
  TGI: 2.4 µM
[30]
  GI50: 0.178 µM
  TGI: 0.723 µM
[31]
  GI50: 0.488 µM
  TGI: 4.55 µM
[32]
  GI50: 0.271 µM
  TGI: 13.5 µM
[33]
  GI50: 0.194 µM
  TGI: 1.12 µM
[34]
  GI50: 0.379 µM
  TGI: 3.81 µM
[35]
  GI50: 0.192 µM
  TGI: 0.751 µM
[36]
  GI50: 0.293 µM
  TGI: 1.6 µM

## O=C(Nc1ccc(Cl)c(C(F)(F)F)c1)c1ccc(NC2=C(Cl)C(=O)N(Cc3ccccc3)C2=O)cc1
[37]
  GI50: 7.04 µM
  TGI: 42.3 µM
[1]
  GI50: 2.89 µM
  TGI: > 100 µM
[38]
  GI50: 16.6 µM
  TGI: 30.2 µM
[2]
  GI50: 1.59 µM
  TGI: 3.92 µM
[39]
  GI50: 4.4 µM
  TGI: 17.6 µM
[40]
  GI50: 13.8 µM
  TGI: 38.7 µM
[3]
  GI50: 7.47 µM
  TGI: > 100 µM
[41]
  GI50: 1.65 µM
  TGI: 4.33 µM
[42]
  GI50: 2.76 µM
  TGI: 9.02 µM
[4]
  GI50: 13.9 µM
  TGI: 27.2 µM
[5]
  GI50: 13.8 µM
  TGI: 33.9 µM
[6]
  GI50: 11.4 µM
  TGI: 69.9 µM
[43]
  GI50: 1.24 µM
  TGI: 2.63 µM
[7]
  GI50: 20.3 µM
  TGI: 47.3 µM
[8]
  GI50: 23.1 µM
  TGI: 53 µM
[9]
  GI50: 19.7 µM
  TGI: 52.8 µM
[44]
  GI50: 11.5 µM
  TGI: 34.5 µM
[10]
  GI50: 16.3 µM
  TGI: 42.7 µM
[45]
  GI50: 2.58 µM
  TGI: 6.46 µM
[12]
  GI50: 19.4 µM
  TGI: 38.6 µM
[46]
  GI50: 19.6 µM
  TGI: 41.6 µM
[13]
  GI50: 26.9 µM
  TGI: 60.5 µM
[14]
  GI50: 17.9 µM
  TGI: 31.8 µM
[47]
  GI50: 19.1 µM
  TGI: 36.8 µM
[15]
  GI50: 1.98 µM
  TGI: 6.07 µM
[16]
  GI50: 2.56 µM
  TGI: 6.58 µM
[48]
  GI50: 2.18 µM
  TGI: 5.54 µM
[17]
  GI50: 17 µM
  TGI: 34.8 µM
[18]
  GI50: 8.92 µM
  TGI: 23.9 µM
[19]
  GI50: 4.18 µM
  TGI: 15.2 µM
[20]
  GI50: 6.11 µM
  TGI: > 100 µM
[21]
  GI50: 2.43 µM
  TGI: 5.67 µM
[22]
  GI50: 22.4 µM
  TGI: 46.1 µM
[49]
  GI50: 2.15 µM
  TGI: 5.23 µM
[23]
  GI50: 16.2 µM
  TGI: 32.9 µM
[24]
  GI50: 29.2 µM
  TGI: > 100 µM
[26]
  GI50: 3.66 µM
  TGI: > 100 µM
[50]
  GI50: 3.49 µM
  TGI: 7.24 µM
[51]
  GI50: 19.2 µM
  TGI: 56.8 µM
[28]
  GI50: 17.1 µM
  TGI: 31 µM
[52]
  GI50: 2.28 µM
  TGI: 5.78 µM
[29]
  GI50: 18.6 µM
  TGI: 37.9 µM
[30]
  GI50: 19.4 µM
  TGI: 34.4 µM
[32]
  GI50: 2.45 µM
  TGI: 6.71 µM
[35]
  GI50: 4.34 µM
  TGI: 14.7 µM
[36]
  GI50: 3.39 µM
  TGI: 11.8 µM
